Data taken from US7491827B2, “Aryl sulfonamides useful as inhibitors of chemokine receptor activity” (Millennium Pharmaceuticals, Inc., priority 2003, dated 2009).

The compounds below were run against T1, cloned human CCR8 receptor stably expressed in L1.2 cells (Homo sapiens, UniProt P51685) (assay: whole cell binding screen: inhibition of biotinylated human I309 binding to CCR8 (FMAT 8100 HTS)). Conditions: Ki of compounds to inhibit I-309 binding to CCR8, L1.2/hCCR8 cells, biotinylated human I-309, 10 point concentration response starting at 10 μM.
T1 construct: expressed in transfected cells
Summary of the method: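 Ten-point dilutions, top 10 μM final, were tested for displacing biotin-I309 from hCCR8-transfected L1.2 cells in HEPES-buffered HBSS with BSA and sodium azide, mixing 0.5 h before FMAT 8100 detection. Signals converted to percent inhibition against untreated wells and a 100 nM excess unlabeled I309 control.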

T1 sequence (P51685 whole entry): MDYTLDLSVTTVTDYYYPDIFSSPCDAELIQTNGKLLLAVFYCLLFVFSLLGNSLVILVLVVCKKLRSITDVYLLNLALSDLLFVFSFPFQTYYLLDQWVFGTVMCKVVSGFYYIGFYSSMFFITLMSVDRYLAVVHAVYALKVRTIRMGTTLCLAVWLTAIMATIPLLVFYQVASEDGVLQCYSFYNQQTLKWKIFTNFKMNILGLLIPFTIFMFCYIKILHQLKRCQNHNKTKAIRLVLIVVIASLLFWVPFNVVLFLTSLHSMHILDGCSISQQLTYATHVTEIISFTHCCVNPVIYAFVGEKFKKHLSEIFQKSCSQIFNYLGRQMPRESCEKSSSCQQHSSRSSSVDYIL

Compound | Ki
CCOC(=O)N1CCC(NS(=O)(=O)c2ccc3cccc(NC(=O)c4ccccc4)c3c2)CC1 [Compound H-51, 4-(8-Benzoylamno-naphthalene-2-sulfonylamino)-piperidine-1-carboxylic acid ethyl ester] | < 30000 nM

Same assay, conditions: L1.2/hCCR8 cells, biotinylated human I-309, 10 point concentration response starting at 10 μM; read-out: Ki of compounds to inhibit I-309 binding to CCR8

Compound | Ki
Cc1ccccc1C(=O)Nc1ccc(S(=O)(=O)NCC2CCCCC2)c2c1CCCC2 [Compound E-27, N-[4-(Cyclohexylmethyl-sulfamoyl)-5,6,7,8-tetrahydro-naphthalen-1-yl]-2-methyl-benzamide] | < 500 nM
CCOC(=O)N1CCC(NS(=O)(=O)c2cccc3c(NC(=O)c4ccccc4C)cccc23)CC1 [Compound H-12, 4-[5-(2-Methyl-benzoylamino)-naphthalene-1-sulfonylamino]-piperidine-1-carboxylic acid ethyl ester] | < 1000 nM
C[C@@H]1CNCC[C@@H]1NS(=O)(=O)c1ccc(N2C(=O)c3ccccc3C2=O)c2ccccc12 (racemic) [Compound C-74, (±)-(cis)-4-(1,3-Dioxo-1,3-dihydro-isoindol-2-yl)-naphthalene-1-sulfonic acid (3-methyl-piperidin-4-yl)-amide] | < 30000 nM
COc1ccc(NS(=O)(=O)c2ccc(NC(=O)c3ccc([N+](=O)[O-])cc3)c3ccccc23)cc1 [Compound B-3, N-[4-(4-Methoxy-phenylsulfamoyl)-naphthalen-1-yl]-4-nitro-benzamide] | < 30000 nM
CCCC(=O)N1CCC(NS(=O)(=O)c2ccc(NC(=O)C3CC3)c3ccccc23)CC1 [Compound D-15, Cyclopropanecarboxylic acid [4-(1-butyryl-piperidin-4-ylsulfamoyl)-naphthalen-1-yl]-amide] | < 500 nM
Cc1ccccc1C(=O)Nc1cc(S(=O)(=O)NC2CCCCC2)cc2c1CCCC2 [Compound H-58, N-(3-Cyclohexylsulfamoyl-5,6,7,8-tetrahydro-naphthalen-1-yl)-2-methyl-benzamide] | < 1000 nM
CCOC(=O)N1CCC(NS(=O)(=O)c2ccc(NC(=O)c3ccccc3C)c3c2CCCC3)C1 (racemic) [Compound E-33, (±)-3-[4-(2-Methyl-benzoylamino)-5,6,7,8-tetrahydro-naphthalene-1-sulfonylamino]-pyrrolidine-1-carboxylic acid ethyl ester] | < 500 nM
CCCC(=O)N1CCC(NS(=O)(=O)c2ccc(NC(=O)C3CCCN(C)C3)c3ccccc23)CC1 [Compound D-23, 1-Methyl-piperidine-3-carboxylic acid [4-(1-butyryl-piperidin-4-ylsulfamoyl)-naphthalen-1-yl]-ainde] | < 30000 nM
CCNC(=O)N1CCC(NS(=O)(=O)c2ccc(NC(=O)c3ccccc3C)c3ccccc23)C(C)(C)C1 (racemic) [Compound C-21, (±)-3,3-Dimethyl-4-[4-(2-methyl-benzoylamino)-naphthalene-1-sulfonylamino]-piperidine-1-carboxylic acid ethylamide] | < 500 nM
CCOC(=O)N1CCC(NS(=O)(=O)c2ccc(NC(=O)c3ccccc3)c3c2CCCC3)CC1 [Compound E-4, 4-(4-Benzoylamino-5,6,7,8-tetrahydro-naphthalene-1-sulfonylamino)-piperidine-1-carboxylic acid ethyl ester] | < 1000 nM
CCOC(=O)c1ccc(NS(=O)(=O)c2cccc3c(NC(=O)c4ccccc4C)cccc23)cc1 [Compound H-19, 4-[5-(2-Methyl-benzoylamino)-naphthalene-1-sulfonylamino]-benzoic acid ethyl ester] | < 30000 nM
CCCC(=O)N1CCC(NS(=O)(=O)c2ccc(C(=O)Nc3ccccc3C)c3ccccc23)CC1 [Compound F-9, 4-(1-Butyryl-piperidin-4-ylsulfamoyl)-naphthalene-1-carboxylic acid o-tolylamide] | < 500 nM
CCCC(=O)N1CCC(NS(=O)(=O)c2ccc(NC(=O)c3ccccc3C)c3c2CCC3)CC1 [Compound H-65, N-[7-(1-Butyryl-piperidin-4-ylsulfamoyl)-indan-4-yl]-2-methyl-benzamide] | < 500 nM
CCOC(=O)N1CCC(NS(=O)(=O)c2cccc3c(NC(=O)c4ccc(C)cc4)cccc23)CC1 [Compound H-15, 4-[5-(4-Methyl-benzoylamino)-naphthalene-1-sulfonylamino]-piperidine-1-carboxylic acid ethyl ester] | < 1000 nM
CCOC(=O)N1CCC(NS(=O)(=O)c2ccc(NC(=O)c3ccccc3Cl)c3ccccc23)CC1 [Compound A-43, 4-[4-(2-Chloro-benzoylamino)-naphthalene-1-sulfonylamino]-piperidine-1-carboxylic acid ethyl ester] | < 500 nM
CCCC(=O)N1CC[C@H](NS(=O)(=O)c2ccc(N3C(=O)c4ccccc4C3=O)c3ccccc23)[C@H](C)C1 (racemic) [Compound C-75, (±)-(cis)-4-(1,3-Dioxo-1,3-dihydro-isoindol-2-yl)-naphthalene-1-sulfonic acid (1-butyryl-3-methyl-piperidin-4-yl)-amide] | < 500 nM

Compound | Ki
CCOC(=O)N1CCC(NS(=O)(=O)c2ccc(CNCc3ccccc3Cl)c3ccccc23)CC1 [Compound G-21, 4-{4-[(2-Chloro-benzylamino)-methyl]-naphthalene-1-sulfonylamino}-piperidine-1-carboxylic acid ethyl ester] | < 500 nM
CCOC(=O)N1CC[C@H](NS(=O)(=O)c2ccc(NC(=O)c3c(C)noc3C)c3ccccc23)[C@H](C)C1 (racemic) [Compound D-8, (±)-(cis)-4-{4-[(3,5-Dimethyl-isoxazole-4-carbonyl)-amino]-naphthalene-1-sulfonylamino}-3-methyl-piperidine-1-carboxylic acid ethyl ester] | < 500 nM
CCCC(=O)N1CC[C@H](NS(=O)(=O)c2ccc(N)c3ccccc23)[C@H](C)C1 (racemic) [Compound D-1, (±)-(cis)-4-amino-naphthalene-1-sulfonic acid (1-butyryl-3-methyl-piperidin-4-yl)-amide] | < 30000 nM
CCN(CC)CC(=O)N1CC[C@@H](NS(=O)(=O)c2ccc(NC(=O)c3ccccc3C)c3ccccc23)[C@@H](C)C1 (racemic) [Compound C-144, (±)-N-{4-[1-(2-diethylamino-acetyl)-3-cis-methyl-piperidin-4-ylsulfamoyl]-naphthalen-1-yl}-2-methyl-benzamide] | < 30000 nM
CCOC(=O)N1CCC(NS(=O)(=O)c2cccc3c(C(=O)Nc4ccccc4C)cccc23)CC1 [Compound H-28, 4-(5-o-Tolylcarbamoyl-naphthalene-1-sulfonylamino)-piperidine-1-carboxylic acid ethyl ester] | < 500 nM
Cc1ccccc1C(=O)Nc1cc(S(=O)(=O)NC2CCN(C(=O)C(C)C)CC2)cc2c1CCCC2 [Compound H-53, N-[3-(1-Isobutyryl-piperidin-4-ylsulfamoyl)-5,6,7,8-tetrahydro-naphthalen-1-yl]-2-methyl-benzamide] | < 30000 nM
CCCC(=O)N1CCC(NS(=O)(=O)c2ccc(NC(=O)c3c(F)cccc3F)c3ccccc23)CC1 [Compound C-109, N-[4-(1-Butyryl-piperidin-4-ylsulfamoyl)-naphthalen-1-yl]-2,6-difluoro-benzamide] | < 1000 nM
CCOC(=O)N1CCC(NS(=O)(=O)c2cc3c(c(NC(=O)C4CCCCC4)c2)CCCC3)CC1 [Compound H-57, 4-[4-(Cyclohexanecarbonyl-amino)-5,6,7,8-tetrahydro-naphthalene-2-sulfonylamino]-piperidine-1-carboxylic acid ethyl ester] | < 1000 nM
CCC(=O)N1CCC(NS(=O)(=O)c2ccc(NC(=O)c3ccccc3OC)c3ccccc23)CC1 [Compound C-102, 2-Methoxy-N-[4-(1-propionyl-piperidin-4-ylsulfamoyl)-naphthalen-1-yl]-benzamide] | < 500 nM
CNC(=O)N1CCC(NS(=O)(=O)c2ccc(NC(=O)c3ccccc3C)c3c2CCCC3)CC1 [Compound E-22, 4-[4-(2-Methyl-benzoylamino)-5,6,7,8-tetrahydro-naphthalene-1-sulfonylamino]-piperidine-1-carboxylic acid methylamide] | < 500 nM
CCOC(=O)N1CCC(NS(=O)(=O)c2cc3c(c(NC(=O)c4ccccc4)c2)CCCC3)CC1 [Compound H-56, 4-(4-Benzoylamino-5,6,7,8-tetrahydro-naphthalene-2-sulfonylamino)-piperidine-1-carboxylic acid ethyl ester] | < 500 nM
COc1ccc(NS(=O)(=O)c2ccc(NC(=O)c3ccccc3OC)c3ccccc23)cc1 [Compound B-6, 2-Methoxy-N-[4-(4-methoxy-phenylsulfamoyl)-naphthalen-1-yl]-benzamide] | < 30000 nM
Cc1ccccc1C(=O)Nc1ccc(S(=O)(=O)N[C@H]2CCN(Cc3ccccc3)C[C@H]2C)c2c1CCCC2 (racemic) [Compound E-13, (±)-cis-N-[4-(1-Benzyl-3-methyl-piperidin-4-ylsulfamoyl)-5,6,7,8-tetrahydro-naphthalen-1-yl]-2-methyl-benzamide] | < 1000 nM
CCOC(=O)N1CC[C@H](NS(=O)(=O)c2ccc(NC(=O)c3cccnc3C)c3ccccc23)[C@H](C)C1 (racemic) [Compound D-6, (±)-(cis)-3-Methyl-4-{4-[(2-methyl-pyridine-3-carbonyl)-amino]-naphthalene-1-sulfonylamino}-piperidine-1-carboxylic acid ethyl ester] | < 500 nM
CCCC(=O)N1CC[C@@H](NS(=O)(=O)c2ccc(NC(=O)c3ccccc3C)c3ccccc23)[C@@H](C)C1 (single isomer, unassigned) [Compound C-140, cis-N-[4-(1-butyryl-3-methyl-piperidin-4-ylsulfamoyl)-naphthalen-1-yl]-2-methyl-benzamiide] | < 500 nM
Cc1cccc(NC(=O)c2ccc(S(=O)(=O)NC3CCN(C(=O)N(C)C)CC3)c3ccccc23)c1C [Compound F-20, 4-[4-(2,3Dimethyl-phenylcarbamoyl)-naphthalene-1-sulfonylamino]-piperidine-1-carboxylic acid dimethylamide] | < 500 nM
